21 compounds from ChEMBL document CHEMBL5356967, “Design, synthesis, evaluation and optimization of novel azole analogues as potent antifungal agents” (Bioorg Med Chem, 2024) can be followed below.

SMILES strings stand for the structures. In brackets after ≈: the same amount, converted by molar mass.

Common to all, as to assay type: functional
The subject of experiment [1] is Candida parapsilosis. As to the kind of experiment: Antifungal activity against Candida parapsilosis 0306392 assessed as inhibition of fungal growth incubated for 24 hrs by broth microdilution method. As to conditions: Lodderomyces parapsilosis.
The subject of experiment [2] is Nannizzia gypsea. As to the kind of experiment: Antifungal activity against Microsporum gypseum 0310388 assessed as inhibition of fungal growth incubated for 24 hrs by broth microdilution method.
For experiment [3], the system named is Candida albicans. As to the kind of experiment: Antifungal activity against Candida albicans SC5314 assessed as inhibition of fungal growth incubated for 24 hrs by broth microdilution method.
The subject of experiment [4] is Aspergillus fumigatus. As to the kind of experiment: Antifungal activity against Aspergillus fumigatus 0504656 assessed as inhibition of fungal growth incubated for 48 hrs by broth microdilution method.
The subject of experiment [5] is Cryptococcus neoformans. Nature of the experiment: Antifungal activity against Cryptococcus neoformans ATCCBLS108 assessed as inhibition of fungal growth incubated for 72 hrs by broth microdilution method.
Experiment [6] has as its system Candida albicans. Nature of the experiment: Antifungal activity against Candida albicans Y0109 assessed as inhibition of fungal growth incubated for 24 hrs by broth microdilution method.
For experiment [7], the system named is Trichophyton rubrum. As to the kind of experiment: Antifungal activity against Trichophyton rubrum 0501124 assessed as inhibition of fungal growth incubated for 24 hrs by broth microdilution method.
In experiment [8] the test system is Candida tropicalis. Nature of the experiment: Antifungal activity against Candida tropicalis 0370354 assessed as inhibition of fungal growth incubated for 24 hrs by broth microdilution method.
In experiment [9] the test system is Candida albicans. Nature of the experiment: Antifungal activity against fluconazole-resistant Candida albicans 904 assessed as inhibition of fungal growth incubated for 24 hrs by broth microdilution method.
Experiment [10] relates to Candida albicans. Nature of the experiment: Antifungal activity against fluconazole-resistant Candida albicans 901 assessed as inhibition of fungal growth incubated for 24 hrs by broth microdilution method.

Consider `Oc1ccc([C@@]2(Cn3ccnc3)OC[C@H](Cn3cc(CCNC4CC4)nn3)O2)c(F)c1` (mixture of isomers), for which the MIC80 was 0.25 µg/mL in [1]; 0.25 µg/mL in experiment [2]; 0.125 µg/mL in [3]; more than 64 µg/mL in experiment [4]; 0.125 µg/mL in experiment [5]; 0.063 µg/mL in [6]. For the same compound, the MIC80 in experiment [7] and in experiment [8] was 0.125 µg/mL throughout.

Take `CCCc1ccc(-c2cn(C[C@H]3CO[C@](Cn4ccnc4)(c4ccc(O)cc4F)O3)nn2)cc1` (mixture of isomers): the MIC80 in experiment [1] was 2 µg/mL; in [2] it was 2 µg/mL; in experiment [3], 0.125 µg/mL; in experiment [4], more than 64 µg/mL; in [5] it was 0.25 µg/mL; in experiment [6], 0.063 µg/mL. For the same compound, the values for the MIC80 in experiment [7] and in experiment [8] were 2 µg/mL and 4 µg/mL, respectively.

Consider `CC(=O)N1CCN(c2ccc(OC[C@@H]3CO[C@@](Cn4ccnc4)(c4ccc(Cl)cc4Cl)O3)cc2)CC1` [LEVOKETOCONAZOLE], for which the MIC80 was 2 µg/mL (≈ 3.76 µM) in experiment [1]; 16 µg/mL (≈ 30.1 µM) in experiment [2]; 1 µg/mL (≈ 1.88 µM) in [3]; more than 64 µg/mL in [9]; more than 64 µg/mL in [4]; 1 µg/mL (≈ 1.88 µM) in experiment [5]. Also, the MIC80 in experiment [6] was 1 µg/mL (≈ 1.88 µM); in experiment [7], 4 µg/mL (≈ 7.53 µM); in [10] it was more than 64 µg/mL; in experiment [8], 32 µg/mL (≈ 60.2 µM).

As to `Oc1ccc([C@@]2(Cn3ccnc3)OC[C@H](Cn3cc(CCN4CCC(O)CC4)nn3)O2)c(F)c1` (mixture of isomers), the MIC80 in experiment [1] was found to be 0.125 µg/mL; in experiment [2] it was 0.125 µg/mL; in experiment [3], 0.016 µg/mL; in experiment [4], 16 µg/mL; in experiment [5], 0.125 µg/mL; in [6], 0.063 µg/mL. Also, the MIC80 in [7] and in [8] was 0.25 µg/mL in each case.

For the compound `N#CCc1ccc(-c2cn(C[C@H]3CO[C@](Cn4ccnc4)(c4ccc(O)cc4F)O3)nn2)cc1` (mixture of isomers), the MIC80 in experiment [1] was 0.125 µg/mL; in experiment [2], 0.125 µg/mL; in experiment [3] it was 0.125 µg/mL; in [4], 16 µg/mL; in [5], 0.125 µg/mL; in experiment [6], 0.063 µg/mL. The MIC80 was 0.25 µg/mL in [7] and 1 µg/mL in experiment [8].

For `CCC(C)n1ncn(-c2ccc(N3CCN(c4ccc(OCC5COC(Cn6cncn6)(c6ccc(Cl)cc6Cl)O5)cc4)CC3)cc2)c1=O` (stereo not given) [ITRACONAZOLE], the MIC80 is 0.25 µg/mL (≈ 0.354 µM) in experiment [1]; 0.25 µg/mL (≈ 0.354 µM) in experiment [2]; 0.25 µg/mL (≈ 0.354 µM) in experiment [3]; 1 µg/mL (≈ 1.42 µM) in experiment [4]; 0.063 µg/mL (≈ 0.0893 µM) in experiment [5]; 0.063 µg/mL (≈ 0.0893 µM) in experiment [6]. Moreover, the figures for the MIC80 in [7] and in experiment [8] were 0.063 µg/mL (≈ 0.0893 µM) and 0.25 µg/mL (≈ 0.354 µM), respectively.

For the compound `Oc1ccc([C@@]2(Cn3ccnc3)OC[C@H](Cn3cc(-c4cccc(F)c4)nn3)O2)c(F)c1` (mixture of isomers), the MIC80 is 0.125 µg/mL in [1]; 1 µg/mL in experiment [2]; 0.125 µg/mL in experiment [3]; more than 64 µg/mL in experiment [4]; 1 µg/mL in [5]; 0.063 µg/mL in experiment [6]. For the same compound, the MIC80 in experiment [7] was 2 µg/mL; in experiment [8] it was 1 µg/mL.

Take `C[C@@H](c1ncncc1F)[C@](O)(Cn1cncn1)c1ccc(F)cc1F` [VORICONAZOLE]: the MIC80 in experiment [1] amounted to 0.016 µg/mL (≈ 0.0458 µM); in experiment [2], 0.063 µg/mL (≈ 0.18 µM); in [3] it was 0.016 µg/mL (≈ 0.0458 µM); in experiment [4], 0.25 µg/mL (≈ 0.716 µM); in experiment [5], 0.016 µg/mL (≈ 0.0458 µM); in experiment [6] it was 0.016 µg/mL (≈ 0.0458 µM). Moreover, the MIC80 in [7] and in [8] was 0.063 µg/mL (≈ 0.18 µM) each time.

With `Oc1ccc([C@@]2(Cn3ccnc3)OC[C@H](Cn3cc(-c4ccccc4)nn3)O2)c(F)c1` (mixture of isomers), the MIC80 in experiment [1] is 0.125 µg/mL; in [2] it was 0.125 µg/mL; in experiment [3], 0.125 µg/mL; in [4], more than 64 µg/mL; in experiment [5], 0.125 µg/mL; in experiment [6] it was 0.063 µg/mL. In addition, the MIC80 in experiment [7] was 0.25 µg/mL; in experiment [8], 0.5 µg/mL.

For the compound `Oc1ccc([C@@]2(Cn3ccnc3)OC[C@H](Cn3cc(CCN4CCCC4)nn3)O2)c(F)c1` (mixture of isomers), the MIC80 in experiment [1] worked out at 0.125 µg/mL; in experiment [2] it was 0.5 µg/mL; in experiment [3] it was 0.063 µg/mL; in experiment [4], 16 µg/mL; in [5], 0.063 µg/mL; in experiment [6], 0.063 µg/mL. The MIC80 in experiment [7] and in experiment [8] was 0.25 µg/mL in each case.

Turning to `Oc1ccc([C@@]2(Cn3ccnc3)OC[C@H](Cn3cc(-c4ccccn4)nn3)O2)c(F)c1` (mixture of isomers), the MIC80 in experiment [1] was determined as 0.25 µg/mL; in experiment [2], 0.125 µg/mL; in experiment [3] it was 0.25 µg/mL; in experiment [4] it was 16 µg/mL; in experiment [5], 0.125 µg/mL; in experiment [6], 0.063 µg/mL. In addition, the MIC80 in experiment [7] and in experiment [8] was 4 µg/mL in each case.

As for `Oc1ccc([C@@]2(Cn3ccnc3)OC[C@H](Cn3cc(COc4ccccc4)nn3)O2)c(F)c1` (mixture of isomers), the MIC80 turned out to be 0.125 µg/mL in experiment [1]; 0.25 µg/mL in experiment [2]; 0.063 µg/mL in experiment [3]; 16 µg/mL in [4]; 0.063 µg/mL in [5]; 0.063 µg/mL in experiment [6]. Besides, the MIC80 in experiment [7] is 1 µg/mL; in experiment [8] it was 0.125 µg/mL.

As for `CC1CCN(CCc2cn(C[C@H]3CO[C@](Cn4ccnc4)(c4ccc(O)cc4F)O3)nn2)CC1` (mixture of isomers), the MIC80 was 0.125 µg/mL in [1]; 0.25 µg/mL in experiment [2]; 0.016 µg/mL in experiment [3]; more than 64 µg/mL in experiment [4]; 0.063 µg/mL in experiment [5]; 0.063 µg/mL in [6]. Further, the MIC80 in experiment [7] worked out at 1 µg/mL; in experiment [8], 0.25 µg/mL.

In the case of `CC(C)(C)c1ccc(-c2cn(C[C@H]3CO[C@](Cn4ccnc4)(c4ccc(O)cc4F)O3)nn2)cc1` (mixture of isomers), the MIC80 in experiment [1] was 0.125 µg/mL; in [2], 0.25 µg/mL; in experiment [3], 0.063 µg/mL; in experiment [4] it was more than 64 µg/mL; in experiment [5] it was 0.063 µg/mL; in [6], 0.063 µg/mL. For the same compound, the results for the MIC80 in [7] and in experiment [8] were 0.25 µg/mL and 0.125 µg/mL, respectively.

Take `Oc1ccc([C@@]2(Cn3ccnc3)OC[C@H](Cn3cc(-c4ccc(F)cc4)nn3)O2)c(F)c1` (mixture of isomers): the MIC80 in experiment [1] is 0.25 µg/mL; in experiment [2] it was 0.125 µg/mL; in experiment [3], 0.125 µg/mL; in experiment [4], more than 64 µg/mL; in experiment [5], 0.125 µg/mL; in experiment [6], 0.063 µg/mL. For the same compound, the MIC80 in experiment [7] and in experiment [8] was 4 µg/mL each time.

Consider `Cc1ccc(-c2cn(C[C@H]3CO[C@](Cn4ccnc4)(c4ccc(O)cc4F)O3)nn2)cc1` (mixture of isomers), for which the MIC80 in experiment [1] was 2 µg/mL; in [2], 4 µg/mL; in experiment [3], 0.063 µg/mL; in [4], more than 64 µg/mL; in experiment [5], 2 µg/mL; in experiment [6] it was 0.063 µg/mL. The results for the MIC80 in experiment [7] and in [8] were 4 µg/mL and 0.25 µg/mL, respectively.

Turning to `Oc1ccc([C@@]2(Cn3ccnc3)OC[C@H](Cn3cc(C(O)c4ccccc4)nn3)O2)c(F)c1` (mixture of isomers), the MIC80 was 0.125 µg/mL in [1]; 0.25 µg/mL in [2]; 0.125 µg/mL in experiment [3]; more than 64 µg/mL in [4]; 0.063 µg/mL in experiment [5]; 0.063 µg/mL in experiment [6]. The MIC80 in experiment [7] was 1 µg/mL; in experiment [8], 0.125 µg/mL.

As for `CNCCc1cn(C[C@H]2CO[C@](Cn3ccnc3)(c3ccc(O)cc3F)O2)nn1` (mixture of isomers), the MIC80 in [1] is 0.25 µg/mL; in [2], 0.25 µg/mL; in experiment [3], 0.125 µg/mL; in [4], more than 64 µg/mL; in [5], 0.125 µg/mL; in experiment [6], 0.063 µg/mL. The MIC80 in experiment [7] came out at 1 µg/mL; in [8], 0.25 µg/mL.

In the case of `Cc1cccc(-c2cn(C[C@H]3CO[C@](Cn4ccnc4)(c4ccc(O)cc4F)O3)nn2)c1` (mixture of isomers), the MIC80 is 0.25 µg/mL in experiment [1]; 0.125 µg/mL in [2]; 0.063 µg/mL in experiment [3]; more than 64 µg/mL in [4]; 0.125 µg/mL in experiment [5]; 0.063 µg/mL in experiment [6]. Moreover, the MIC80 in experiment [7] turned out to be 2 µg/mL; in experiment [8], 0.25 µg/mL.

Consider `COc1ccc(-c2cn(C[C@H]3CO[C@](Cn4ccnc4)(c4ccc(O)cc4F)O3)nn2)cc1` (mixture of isomers), for which the MIC80 is 0.125 µg/mL in experiment [1]; 0.25 µg/mL in experiment [2]; 0.063 µg/mL in experiment [3]; more than 64 µg/mL in experiment [4]; 0.063 µg/mL in experiment [5]; 0.063 µg/mL in experiment [6]. Moreover, the results for the MIC80 in experiment [7] and in experiment [8] were 0.5 µg/mL and 0.25 µg/mL, respectively.

Take `Oc1ccc([C@@]2(Cn3ccnc3)OC[C@H](Cn3cc(C4CC4)nn3)O2)c(F)c1` (mixture of isomers): the MIC80 in [1] was found to be 0.25 µg/mL; in experiment [2], 0.125 µg/mL; in experiment [3], 0.25 µg/mL; in experiment [4] it was 16 µg/mL; in [5] it was 0.25 µg/mL; in experiment [6], 0.063 µg/mL. In addition, the MIC80 in [7] came to 4 µg/mL; in experiment [8], 0.25 µg/mL.
